Among the data in patent US20260070945A1, “MACROCYCLIC IMMUNOMODULATORS” (Bristol-Myers Squibb Company, priority 2022, published 2026) are IC50 values, retold here.

Molecules are shown by their SMILES. Where a SMILES comes first, the peptide text is derived from it. Bridges are numbered along the chain shown (N, C = ends). [ ]: non-standard residue; d: D form. The star is where a group is joined. ξ: configuration not given here. Phe(4-CH2CH2COOH) = N[C@@H](Cc1ccc(CCC(=O)O)cc1)C(=O)O; Phe(3-CF3) = N[C@@H](Cc1cccc(C(F)(F)F)c1)C(=O)O; Ala(morpholin-4-yl) = N[C@@H](CN1CCOCC1)C(=O)O; Phe(4-COOH) = N[C@@H](Cc1ccc(C(=O)O)cc1)C(=O)O; Bip = N[C@@H](Cc1ccc(-c2ccccc2)cc1)C(=O)O; Phe(3-Me) = Cc1cccc(C[C@H](N)C(=O)O)c1; NH(CH2)12COOH = O=C(O)CCCCCCCCCCCCN*; Val(3-OH) = CC(C)(O)[C@H](N)C(=O)O; hArg = N=C(N)NCCCC[C@H](N)C(=O)O; 3Pal = N[C@@H](Cc1cccnc1)C(=O)O; 4Pal = N[C@@H](Cc1ccncc1)C(=O)O; Cha = N[C@@H](CC1CCCCC1)C(=O)O; Ile(3ξ) = CCC(C)[C@H](N)C(=O)O; Thr(3ξ) = CC(O)[C@H](N)C(=O)O; hSer = N[C@@H](CCO)C(=O)O; 4Abz = Nc1ccc(C(=O)O)cc1; Carboxymethyl = O=C(O)C*; NMeA = CN[C@@H](C)C(=O)O; Orn = NCCC[C@H](N)C(=O)O; Aun = NCCCCCCCCCCC(=O)O; Dab = NCC[C@H](N)C(=O)O; AEEA = NCCOCCOCC(=O)O

T1 sequence (Q15116 25-288): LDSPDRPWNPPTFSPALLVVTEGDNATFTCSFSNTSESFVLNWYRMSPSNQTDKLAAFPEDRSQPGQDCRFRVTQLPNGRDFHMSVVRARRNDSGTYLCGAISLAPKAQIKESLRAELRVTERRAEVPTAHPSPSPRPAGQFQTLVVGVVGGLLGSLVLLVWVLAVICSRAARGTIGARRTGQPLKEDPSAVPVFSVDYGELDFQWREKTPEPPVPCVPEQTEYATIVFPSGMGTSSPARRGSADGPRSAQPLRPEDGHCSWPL

The first assay has as its target T1, PD-1/PD-L1 interaction (PE-labeled human PD-L1-Ig binding to Jurkat cell line over-expressing human PD-1) (Homo sapiens, UniProt Q15116).
T1 construct: expressed in transfected cells; host or cells: Jurkat
Briefly: Jurkat-PD-1 Cell Binding High-Content Screening Assay (CBA). Particulars: Jurkat-hPD-1 cells, PE-labeled PD-L1-Ig 20 nM final; read-out: Jurkat HPD1 PDL1 IC50. The method, boiled down:
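In this imaging assay, cells in 10% FCS medium see compound for 2 h at 37 °C and then labeled ligand at 20 nM final for 1 h. Paraformaldehyde fixation, Hoechst 33342 staining and dPBS washes precede image capture.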
For `CC(=O)NCCCC[C@@H]1NC(=O)[C@H](Cc2ccc(-c3ccccc3)cc2)NC(=O)[C@H](C(C)C)NC(=O)[C@H](Cc2cccc(C)c2)NC(=O)[C@H](CC(=O)O)NC(=O)[C@H](Cc2ccc(OCC(=O)O)cc2)NC(=O)[C@H](CCCNC(=N)N)NC(=O)CSC[C@@H](C(=O)N[C@@H](CCN)C(=O)NCCCCCCCCCCC(=O)O)NC(=O)[C@H](C(C)O)NC(=O)[C@H](C(C)C)NC(=O)[C@H](CC2CCCCC2)NC(=O)[C@H](CCN)NC(=O)[C@@H](CC(C)C)NC(=O)[C@H](C)N(C)C1=O` (stereo partly drawn) [Example 2380] ({CH2CO}-RY(Carboxymethyl)D[Phe(3-Me)]V[Bip]K(Ac)[NMeA][dL][Dab][Cha]V[Thr(3ξ)]C[Dab][Aun]-OH; thioether N-14), the 50% inhibitory concentration (IC50) was 14.6 nM.
As to `CCC(C)[C@@H]1NC(=O)[C@H](Cc2ccc(-c3ccccc3)cc2)NC(=O)[C@H](C(C)C)NC(=O)[C@H](Cc2c[nH]c3ccccc23)NC(=O)[C@H](CC(=O)O)NC(=O)[C@H](Cc2ccc(O)cc2)NC(=O)[C@H](Cc2ccncc2)NC(=O)CSC[C@@H](C(=O)N[C@@H](CC(N)=O)C(=O)NCCOCCOCC(=O)N[C@@H](CCCN)C(=O)NCCCCCCCCCCC(=O)O)NC(=O)[C@H](CO)NC(=O)[C@H](C(C)C)NC(=O)[C@H](CC2CCCCC2)NC(=O)[C@H](CCN)NC(=O)[C@@H](CC(C)C)NC(=O)[C@H](C)N(C)C1=O` (stereo partly drawn) [Example 2078] ({CH2CO}-[4Pal]YDWV[Bip][Ile(3ξ)][NMeA][dL][Dab][Cha]VSCN[AEEA][Orn][Aun]-OH; thioether N-14), the IC50 came out at 12.2 nM.
Still for that read-out and setting: next, `CC(C)C[C@H]1NC(=O)[C@H](C)N(C)C(=O)[C@H](CCC(N)=O)NC(=O)[C@H](Cc2ccc(-c3ccccc3)cc2)NC(=O)[C@H](Cc2ccc(C(=O)O)cc2)NC(=O)[C@H](Cc2cccc(C(F)(F)F)c2)NC(=O)[C@H](CC(=O)O)NC(=O)[C@H](Cc2ccc(OCC(=O)O)cc2)NC(=O)[C@H](CN2CCOCC2)NC(=O)CSC[C@@H](C(=O)N[C@@H](CCN)C(=O)NCCCCCCCCCCCCC(=O)O)NC(=O)[C@H](CC(=O)O)NC(=O)[C@H](C(C)(C)O)NC(=O)[C@H](CC2CCCCC2)NC(=O)[C@H](CCN)NC1=O` [Example 1150] ({CH2CO}-[Ala(morpholin-4-yl)]Y(Carboxymethyl)D[Phe(3-CF3)][Phe(4-COOH)][Bip]Q[NMeA][dL][Dab][Cha][Val(3-OH)]DC[Dab]-{NH(CH2)12COOH}; thioether N-14): 16 nM.
The same measure, in the same setting: the figure for `CC(C)C[C@@H]1NC(=O)[C@H](Cc2c[nH]c3ccccc23)NC(=O)[C@H](CC(=O)O)NC(=O)[C@H](Cc2ccc(C(=O)O)cc2)NC(=O)[C@H](Cc2ccc(OCC(=O)O)cc2)NC(=O)CSC[C@@H](C(=O)N[C@@H](CCCN)C(=O)NCCOCCOCC(=O)NCCCCCCCCCCC(=O)O)NC(=O)[C@H](CCN)NC(=O)[C@H](C(C)C)NC(=O)[C@H](CC2CCCCC2)NC(=O)[C@H](CCN)NC(=O)[C@@H](CC(C)C)NC(=O)[C@H](C)N(C)C(=O)[C@H](C(C)C)NC(=O)[C@H](Cc2ccc(-c3ccccc3)cc2)NC1=O` [Example 2150] ({CH2CO}-Y(Carboxymethyl)[Phe(4-COOH)]DWL[Bip]V[NMeA][dL][Dab][Cha]V[Dab]C[Orn][AEEA][Aun]-OH; thioether N-14) is 14.1 nM; for `Cc1cccc(C[C@@H]2NC(=O)[C@H](CC(=O)O)NC(=O)[C@H](Cc3ccc(OCC(=O)O)cc3)NC(=O)[C@H]([C@@H](C)O)NC(=O)CSC[C@@H](C(=O)N[C@@H](CCCN)C(=O)NCCOCCOCC(=O)NCCCCCCCCCCC(=O)O)NC(=O)[C@H](CC(N)=O)NC(=O)[C@H](C(C)C)NC(=O)[C@H](CC3CCCCC3)NC(=O)[C@H](CCN)NC(=O)[C@@H](CC(C)C)NC(=O)[C@H](C)N(C)C(=O)[C@H](Cc3ccc(OCC(=O)O)cc3)NC(=O)[C@H](Cc3ccc(-c4ccccc4)cc3)NC(=O)[C@H](Cc3ccc(OCC(=O)O)cc3)NC2=O)c1` [Example 1374] ({CH2CO}-TY(Carboxymethyl)D[Phe(3-Me)]Y(Carboxymethyl)[Bip]Y(Carboxymethyl)[NMeA][dL][Dab][Cha]VNC[Orn][AEEA][Aun]-OH; thioether N-14) it is 17.4 nM; for `CC(C)C[C@@H]1NC(=O)[C@H](Cc2c[nH]c3ccccc23)NC(=O)[C@H](CC(=O)O)NC(=O)[C@H](Cc2ccc(C(=O)O)cc2)NC(=O)[C@H](Cc2ccc(OCC(=O)O)cc2)NC(=O)CSC[C@@H](C(=O)NCCOCCOCC(=O)NCCCCCCCCCCC(=O)O)NC(=O)[C@H](CCO)NC(=O)[C@H](C(C)C)NC(=O)[C@H](CC2CCCCC2)NC(=O)[C@H](CCN)NC(=O)[C@@H](CC(C)C)NC(=O)[C@H](C)N(C)C(=O)[C@H](CCC(N)=O)NC(=O)[C@H](Cc2ccc(-c3ccccc3)cc2)NC1=O` [Example 2226] ({CH2CO}-Y(Carboxymethyl)[Phe(4-COOH)]DWL[Bip]Q[NMeA][dL][Dab][Cha]V[hSer]C[AEEA][Aun]-OH; thioether N-14) it is 26.7 nM.
Same read-out and setting: next, `CC(C)C[C@@H]1NC(=O)[C@H](Cc2c[nH]c3ccccc23)NC(=O)[C@H](CC(=O)O)NC(=O)[C@H](Cc2ccncc2)NC(=O)[C@H](Cc2ccc(OCC(=O)O)cc2)NC(=O)CSC[C@@H](C(=O)Nc2ccc(C(=O)NCCCCCCCCCCC(=O)O)cc2)NC(=O)[C@H](CCN)NC(=O)[C@H](C(C)C)NC(=O)[C@H](CC2CCCCC2)NC(=O)[C@H](CCN)NC(=O)[C@@H](CC(C)C)NC(=O)[C@H](C)N(C)C(=O)[C@H](C(C)C)NC(=O)[C@H](Cc2ccc(-c3ccccc3)cc2)NC1=O` [Example 1212] ({CH2CO}-Y(Carboxymethyl)[4Pal]DWL[Bip]V[NMeA][dL][Dab][Cha]V[Dab]C[4Abz][Aun]-OH; thioether N-14): 301 nM; `CC(C)C[C@@H]1NC(=O)[C@H](Cc2c[nH]c3ccccc23)NC(=O)[C@H](CC(=O)O)NC(=O)[C@H](CCCCNC(=N)N)NC(=O)[C@H](Cc2ccc(OCC(=O)O)cc2)NC(=O)CSC[C@@H](C(=O)N[C@@H](CCCN)C(=O)NCCOCCOCC(=O)NCCCCCCCCCCC(=O)O)NC(=O)[C@H](CO)NC(=O)[C@H](C(C)C)NC(=O)[C@H](CC2CCCCC2)NC(=O)[C@H](CCN)NC(=O)[C@@H](CC(C)C)NC(=O)[C@H](C)N(C)C(=O)[C@H](C(C)C)NC(=O)[C@H](Cc2ccc(-c3ccccc3)cc2)NC1=O` [Example 2140] ({CH2CO}-Y(Carboxymethyl)[hArg]DWL[Bip]V[NMeA][dL][Dab][Cha]VSC[Orn][AEEA][Aun]-OH; thioether N-14): 15.7 nM; `Cc1cccc(C[C@@H]2NC(=O)[C@H](CC(=O)O)NC(=O)[C@H](Cc3cccnc3)NC(=O)[C@H](CC(N)=O)NC(=O)CSC[C@@H](C(=O)N[C@@H](CCN)C(=O)NCCCCCCCCCCC(=O)O)NC(=O)[C@H]([C@@H](C)O)NC(=O)[C@H](C(C)C)NC(=O)[C@H](CC3CCCCC3)NC(=O)[C@H](CCN)NC(=O)[C@@H](CC(C)C)NC(=O)[C@H](C)N(C)C(=O)[C@H](Cc3ccc(O)cc3)NC(=O)[C@H](Cc3ccc(-c4ccccc4)cc3)NC(=O)[C@H](C(C)C)NC2=O)c1` [Example 1323] ({CH2CO}-N[3Pal]D[Phe(3-Me)]V[Bip]Y[NMeA][dL][Dab][Cha]VTC[Dab][Aun]-OH; thioether N-14): 99.4 nM.

Still in this assay, the particulars now being: PE-labeled PD-L1-Ig 20 nM final, Jurkat-hPD-1 cells; read-out: Jurkat HPD1 PDL1 IC50.
For `CC(=O)NCCCC[C@@H]1NC(=O)[C@H](C(C)(C)O)NC(=O)[C@H](CC2CCCCC2)NC(=O)[C@H](CCN)NC(=O)[C@@H](CC(C)C)NC(=O)[C@H](C)N(C)C(=O)[C@H](CCC(N)=O)NC(=O)[C@H](Cc2ccc(-c3ccccc3)cc2)NC(=O)[C@H](Cc2ccc(CCC(=O)O)cc2)NC(=O)[C@H](Cc2cccc(C(F)(F)F)c2)NC(=O)[C@H](CC(=O)O)NC(=O)[C@H](Cc2ccc(OCC(=O)O)cc2)NC(=O)[C@H](Cc2ccc(OCC(=O)O)cc2)NC(=O)CSC[C@@H](C(=O)N[C@@H](CCN)C(=O)NCCOCCOCC(=O)NCCCCCCCCCCC(=O)O)NC1=O` [Example 2597] ({CH2CO}-Y(Carboxymethyl)Y(Carboxymethyl)D[Phe(3-CF3)][Phe(4-CH2CH2COOH)][Bip]Q[NMeA][dL][Dab][Cha][Val(3-OH)]K(Ac)C[Dab][AEEA][Aun]-OH; thioether N-14), the IC50 came out at 3.3 nM.
Same read-out and setting: the figure for `CC(C)C[C@H]1NC(=O)[C@H](C)N(C)C(=O)[C@H](CCCNC(=N)N)NC(=O)[C@H](Cc2ccc(-c3ccccc3)cc2)NC(=O)[C@H](Cc2ccc(C(=O)O)cc2)NC(=O)[C@H](Cc2cccc(C(F)(F)F)c2)NC(=O)[C@H](CC(=O)O)NC(=O)[C@H](Cc2ccc(OCC(=O)O)cc2)NC(=O)[C@H](C(C)O)NC(=O)CSC[C@@H](C(=O)N[C@H](CC(N)=O)C(=O)NCCCCCCCCCCCCC(=O)O)NC(=O)[C@H](CO)NC(=O)[C@H](C(C)(C)O)NC(=O)[C@H](CC2CCCCC2)NC(=O)[C@H](CCN)NC1=O` (stereo partly drawn) [Example 2645] ({CH2CO}-[Thr(3ξ)]Y(Carboxymethyl)D[Phe(3-CF3)][Phe(4-COOH)][Bip]R[NMeA][dL][Dab][Cha][Val(3-OH)]SC[dN]-{NH(CH2)12COOH}; thioether N-14) is 114 nM; for `CC(C)C[C@H]1NC(=O)[C@H](C)N(C)C(=O)[C@H](Cc2ccc(OCC(=O)O)cc2)NC(=O)[C@H](Cc2ccc(-c3ccccc3)cc2)NC(=O)[C@H](Cc2ccc(C(=O)O)cc2)NC(=O)[C@H](Cc2cccc(C(F)(F)F)c2)NC(=O)[C@H](CC(=O)O)NC(=O)[C@H](Cc2ccc(OCC(=O)O)cc2)NC(=O)[C@H](Cc2cnc[nH]2)NC(=O)CSC[C@@H](C(=O)N[C@@H](CCN)C(=O)NCCCCCCCCCCC(=O)O)NC(=O)[C@H](C(C)O)NC(=O)[C@H](C(C)C)NC(=O)[C@H](CC2CCCCC2)NC(=O)[C@H](CCN)NC1=O` (stereo partly drawn) [Example 2580] ({CH2CO}-HY(Carboxymethyl)D[Phe(3-CF3)][Phe(4-COOH)][Bip]Y(Carboxymethyl)[NMeA][dL][Dab][Cha]V[Thr(3ξ)]C[Dab][Aun]-OH; thioether N-14) it is 6.8 nM.

For orientation: IC50 means the concentration needed to halve the response being measured.
